# Patent US10752624B2, “Kinase inhibitors” (Origenis GmbH, priority 2012, dated 2020)
# Biological target: LRRK2 (Homo sapiens, UniProt Q5S007)
# Assay: LRRK2-LRRK2 G2019S-Assay (LanthaScreen Eu Kinase Binding Assay)
# Conditions: 5 nM LRRK2, 10 nM tracer 236, 2 nM EU-Anti-GST antibody, 1 h at RT; read-out: LRRK2 Activities: IC50
# Protocol: In the assay LanthaScreen™ Eu Kinase Binding Assay by Invitrogen Corporation (Carlsbad) the effect of invention of a compound on the phosphorylation is determined by measurement of fluorescence intensity emission ratio based on the binding and displacement of a proprietary, Alexa Fluor® 647-labeled, ATP-competitive kinase inhibitor scaffold (kinase tracer) to the kinase of interest. Binding of the tracer to the kinase is detected using a europium-labeled anti-tag antibody, which binds to the kinase of interest. Simultaneous binding of both the tracer and antibody to the kinase results in a high degree of FRET (fluorescence resonance energy transfer) from the europium (Eu) donor fluorophore to the Alexa Fluor® 647 acceptor fluorophore on the kinase tracer. Binding of an inhibitor to the kinase competes for binding with the tracer, resulting in a loss of FRET. The fluorescence intensity ratio is directly proportional to the amount of peptide phosphorylation.
# To the wells of an 384 well small volume plate (Greiner, Frickenhausen) are added (i) the compound under test in 5% DMSO/distilled water (5 μl), (ii) 5 μl of the kinase antibody mixture resulting in a final concentration 5 nM LRRK2 or their mutants, 2 nM EU-Anti-GST antibody in 1× kinase buffer A. The reaction was started with addition of (iii) 5 μl resulting in a final concentration of 10 nM tracer 236. The assay plate was incubated at RT for 1 h and fluorescence intensity readings were collected using a TECAN M1000 at two wavelengths of λex 340/λem 615 nm and λex 340/λem 665 nm with a delay time of 100 μs and an integration time of 200 μs after 60 minutes. The emission ratio was calculated by division of the acceptor/tracer emission ([…]) by the antibody/donor emission ([…]). The inhibitor concentration was plotted versus the emission ratio to determine the IC50 using XLFit 5.0 (IDBS, Guildford) to fit to a sigmoidal dose response curve with a variable slope.
# LRRK2, sequence (Q5S007 970-2527 limits assumed): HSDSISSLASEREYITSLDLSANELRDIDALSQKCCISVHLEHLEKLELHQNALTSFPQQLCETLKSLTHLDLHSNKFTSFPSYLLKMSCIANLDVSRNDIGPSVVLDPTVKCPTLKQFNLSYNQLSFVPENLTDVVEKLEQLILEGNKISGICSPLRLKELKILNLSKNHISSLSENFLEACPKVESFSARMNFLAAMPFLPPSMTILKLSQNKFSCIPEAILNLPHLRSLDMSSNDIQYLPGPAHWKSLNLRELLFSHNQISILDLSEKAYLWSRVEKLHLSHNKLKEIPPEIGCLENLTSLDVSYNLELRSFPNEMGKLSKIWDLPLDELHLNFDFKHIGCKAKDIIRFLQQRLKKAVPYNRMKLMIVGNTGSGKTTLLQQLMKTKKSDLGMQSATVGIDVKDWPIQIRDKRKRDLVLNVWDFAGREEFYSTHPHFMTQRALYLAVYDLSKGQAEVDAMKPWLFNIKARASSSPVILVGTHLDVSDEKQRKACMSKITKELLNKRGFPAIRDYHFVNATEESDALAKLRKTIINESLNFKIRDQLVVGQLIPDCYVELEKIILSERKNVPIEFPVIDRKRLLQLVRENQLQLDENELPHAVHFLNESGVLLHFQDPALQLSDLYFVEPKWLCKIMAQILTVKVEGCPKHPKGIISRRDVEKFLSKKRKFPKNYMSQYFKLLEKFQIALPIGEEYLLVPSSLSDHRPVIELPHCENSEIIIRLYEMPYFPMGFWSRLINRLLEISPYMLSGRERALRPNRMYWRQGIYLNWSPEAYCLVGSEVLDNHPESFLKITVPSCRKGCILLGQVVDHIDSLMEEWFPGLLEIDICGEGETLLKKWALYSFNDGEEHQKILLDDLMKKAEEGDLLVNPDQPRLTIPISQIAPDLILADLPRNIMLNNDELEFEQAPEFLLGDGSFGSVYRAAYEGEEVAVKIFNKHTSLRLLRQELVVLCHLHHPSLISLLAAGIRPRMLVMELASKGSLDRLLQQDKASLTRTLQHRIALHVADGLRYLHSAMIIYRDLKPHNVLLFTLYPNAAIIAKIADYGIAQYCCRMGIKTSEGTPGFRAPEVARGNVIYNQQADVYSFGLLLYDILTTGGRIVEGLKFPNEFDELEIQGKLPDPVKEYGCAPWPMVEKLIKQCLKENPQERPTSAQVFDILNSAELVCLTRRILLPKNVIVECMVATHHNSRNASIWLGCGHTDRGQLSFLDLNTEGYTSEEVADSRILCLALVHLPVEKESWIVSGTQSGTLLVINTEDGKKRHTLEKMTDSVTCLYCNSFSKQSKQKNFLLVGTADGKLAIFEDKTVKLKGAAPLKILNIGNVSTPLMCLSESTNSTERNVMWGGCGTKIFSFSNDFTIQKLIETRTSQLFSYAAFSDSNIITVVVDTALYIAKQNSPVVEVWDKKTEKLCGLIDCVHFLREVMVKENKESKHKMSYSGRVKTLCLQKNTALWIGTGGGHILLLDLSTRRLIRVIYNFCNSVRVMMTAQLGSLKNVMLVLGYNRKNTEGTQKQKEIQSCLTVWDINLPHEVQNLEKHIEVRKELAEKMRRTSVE
row,IC50,SMILES
1,100 to 1000 nM,"CC(=O)N1CCN(c2ccc(Nc3nc4c(F)cccc4c4cn[nH]c34)cc2)CC1 [Example 53, 1-(4-(4-((6-fluoro-3H-pyrazolo[3,4-c]quinolin-4-yl)amino)phenyl)piperazin-1-yl)ethan-1-one]"
2,100 to 1000 nM,"COc1cccc2nc(Nc3ccc(-c4ncco4)cc3)c3[nH]ncc3c12 [Example 58, 9-methoxy-N-(4-(oxazol-2-yl)phenyl)-3H-pyrazolo[3,4-c]quinolin-4-amine]"
3,10 to 100 nM,"COc1cccc2nc(Nc3ccc(N4CCN(S(C)(=O)=O)CC4)cc3)c3[nH]ncc3c12 [Example 59, 9-methoxy-N-(4-(4-(methylsulfonyl)piperazin-1-yl)phenyl)-3H-pyrazolo[3,4-c]quinolin-4-amine]"
4,100 to 1000 nM,"COc1cccc2nc(Nc3ccc(N4CCOCC4=O)cc3)c3[nH]ncc3c12 [Example 60, 4-(4-((9-methoxy-3H-pyrazolo[3,4-c]quinolin-4-yl)amino)phenyl)morpholin-3-one]"
5,10 to 100 nM,"COc1cccc2nc(Nc3ccc(C(=O)N4CCCC4)cc3)c3[nH]ncc3c12 [Example 61, (4-((9-methoxy-3H-pyrazolo[3,4-c]quinolin-4-yl)amino)phenyl)(pyrrolidin-1-yl)methanone]"
6,10 to 100 nM,"COc1ccc(Nc2nc3ccc(S(C)(=O)=O)cc3c3cn[nH]c23)cc1OC [Example 63, N-(3,4-dimethoxyphenyl)-8-(methylsulfonyl)-3H-pyrazolo[3,4-c]quinolin-4-amine]"
7,10 to 100 nM,"COc1cccc2nc(Nc3ccc(N4CCCC4=O)cc3)c3[nH]ncc3c12 [Example 68, 1-(4-((9-methoxy-3H-pyrazolo[3,4-c]quinolin-4-yl)amino)phenyl)pyrrolidin-2-one]"
8,10 to 100 nM,"COc1cccc2nc(Nc3ccc(C(=O)N4CCN(C)CC4)cc3)c3[nH]ncc3c12 [Example 69, (4-((9-methoxy-3H-pyrazolo[3,4-c]quinolin-4-yl)amino)phenyl)(4-methylpiperazin-1-yl)methanone]"
9,10 to 100 nM,"COc1cccc2nc(Nc3ccc(N4CCOCC4)c(C#N)c3)c3[nH]ncc3c12 [Example 71, 5-((9-methoxy-3H-pyrazolo[3,4-c]quinolin-4-yl)amino)-2-morpholinobenzonitrile]"
10,100 to 1000 nM,"COc1ccc(Nc2nc3ccc(C)cc3c3cn[nH]c23)cc1OC [Example 72, N-(3,4-dimethoxyphenyl)-8-methyl-3H-pyrazolo[3,4-c]quinolin-4-amine]"
11,10 to 100 nM,"COc1ccc2nc(Nc3ccc(-c4nnc(S)o4)cc3)c3n[nH]cc3c2c1 [Example 84, 5-(4-((8-methoxy-2H-pyrazolo[3,4-c]quinolin-4-yl)amino)phenyl)-1,3,4-oxadiazole-2-thiol]"
12,100 to 1000 nM,"COc1ccc2nc(Nc3ccc(N(C)C)nc3)c3n[nH]cc3c2c1 [Example 87, N5-(8-methoxy-2H-pyrazolo[3,4-c]quinolin-4-yl)-N2,N2-dimethylpyridine-2,5-diamine]"
13,100 to 1000 nM,"Cc1cccc2nc(Nc3cccc(S(C)(=O)=O)c3)c3[nH]ncc3c12 [Example 88, 9-methyl-N-(3-(methylsulfonyl)phenyl)-3H-pyrazolo[3,4-c]quinolin-4-amine]"
14,100 to 1000 nM,"Cc1cccc2nc(Nc3ccc(N4CCOCC4)cc3)c3[nH]ncc3c12 [Example 89, 9-methyl-N-(4-morpholinophenyl)-3H-pyrazolo[3,4-c]quinolin-4-amine]"
15,100 to 1000 nM,"COc1ccc2nc(Nc3ccc(N4CCOCC4)c(S(C)(=O)=O)c3)c3n[nH]cc3c2c1 [Example 90, 8-methoxy-N-(3-(methylsulfonyl)-4-morpholinophenyl)-2H-pyrazolo[3,4-c]quinolin-4-amine]"
16,100 to 1000 nM,"COc1ccc2nc(Nc3ccc(N4CCN(C(C)=O)CC4)nc3)c3n[nH]cc3c2c1 [Example 91, 1-(4-(5-((8-methoxy-2H-pyrazolo[3,4-c]quinolin-4-yl)amino)pyridin-2-yl)piperazin-1-yl)ethan-1-one]"
17,< 10 nM,"CS(=O)(=O)c1cccc2nc(Nc3ccc(N4CCOCC4)cc3)c3[nH]ncc3c12 [Example 92, 9-(methylsulfonyl)-N-(4-morpholinophenyl)-3H-pyrazolo[3,4-c]quinolin-4-amine]"
18,10 to 100 nM,"CC(=O)N1CCN(c2ccc(Nc3nc4cccc(S(C)(=O)=O)c4c4cn[nH]c34)cc2)CC1 [Example 93, 1-(4-(4-((9-(methylsulfonyl)-3H-pyrazolo[3,4-c]quinolin-4-yl)amino)phenyl)piperazin-1-yl)ethan-1-one]"

row,IC50,SMILES
1,100 to 1000 nM,"CS(=O)(=O)c1cccc2nc(Nc3ccc(C(=O)N4CCOCC4)cc3)c3[nH]ncc3c12 [Example 94, (4-((9-(methylsulfonyl)-3H-pyrazolo[3,4-c]quinolin-4-yl)amino)phenyl)(morpholino)methanone]"
2,100 to 1000 nM,"CC(C)(C)N1CCN(c2ccc(Nc3nc4cccc(S(C)(=O)=O)c4c4cn[nH]c34)cc2)CC1 [Example 95, N-(4-(4-(tert-butyl)piperazin-1-yl)phenyl)-9-(methylsulfonyl)-3H-pyrazolo[3,4-c]quinolin-4-amine]"
3,100 to 1000 nM,"COc1ccc2nc(Nc3ccc(N4CCC(N5CCN(C)CC5)CC4)nc3)c3n[nH]cc3c2c1 [Example 96, 8-methoxy-N-(6-(4-(4-methylpiperazin-1-yl)piperidin-1-yl)pyridin-3-yl)-2H-pyrazolo[3,4-c]quinolin-4-amine]"
4,100 to 1000 nM,"CN1CCN(C2CCN(c3ccc(Nc4nc5cccc(S(C)(=O)=O)c5c5cn[nH]c45)cc3)CC2)CC1 [Example 97, N-(4-(4-(4-methylpiperazin-1-yl)piperidin-1-yl)phenyl)-9-(methylsulfonyl)-3H-pyrazolo[3,4-c]quinolin-4-amine]"
5,100 to 1000 nM,"COc1ccc(Nc2nc3cccc(S(C)(=O)=O)c3c3cn[nH]c23)cc1OC [Example 99, N-(3,4-dimethoxyphenyl)-9-(methylsulfonyl)-3H-pyrazolo[3,4-c]quinolin-4-amine]"
6,100 to 1000 nM,"CN1CCN(c2ccc(Nc3nc4cccc(S(C)(=O)=O)c4c4cn[nH]c34)cn2)CC1 [Example 100, N-(6-(4-methylpiperazin-1-yl)pyridin-3-yl)-9-(methylsulfonyl)-3H-pyrazolo[3,4-c]quinolin-4-amine]"
7,100 to 1000 nM,"COc1ccc2nc(Nc3cnn(C)c3C)c3n[nH]cc3c2c1 [Example 104, N-(1,5-dimethyl-1H-pyrazol-4-yl)-8-methoxy-2H-pyrazolo[3,4-c]quinolin-4-amine]"
8,100 to 1000 nM,"COc1ccc2nc(Nc3cn(C)nc3C)c3n[nH]cc3c2c1 [Example 105, N-(1,3-dimethyl-1H-pyrazol-4-yl)-8-methoxy-2H-pyrazolo[3,4-c]quinolin-4-amine]"
9,100 to 1000 nM,"CS(=O)(=O)c1cccc2nc(Nc3ccc(NCCO)cc3)c3[nH]ncc3c12 [Example 106, 2-((4-((9-(methylsulfonyl)-3H-pyrazolo[3,4-c]quinolin-4-yl)amino)phenyl)amino)ethan-1-ol]"
10,100 to 1000 nM,"CS(=O)(=O)c1cccc(Nc2nc3cccc(S(C)(=O)=O)c3c3cn[nH]c23)c1 [Example 107, 9-(methylsulfonyl)-N-(3-(methylsulfonyl)phenyl)-3H-pyrazolo[3,4-c]quinolin-4-amine]"
11,10 to 100 nM,"COc1ccc2nc(Nc3cnn(C4CCN(C)CC4)c3)c3n[nH]cc3c2c1 [Example 111, 8-methoxy-N-(1-(1-methylpiperidin-4-yl)-1H-pyrazol-4-yl)-2H-pyrazolo[3,4-c]quinolin-4-amine]"
12,10 to 100 nM,"COc1ccc2nc(Nc3cnn(C4CCN(C(C)=O)CC4)c3)c3n[nH]cc3c2c1 [Example 112, 1-(4-(4-((8-methoxy-2H-pyrazolo[3,4-c]quinolin-4-yl)amino)-1H-pyrazol-1-yl)piperidin-1-yl)ethan-1-one]"
13,10 to 100 nM,"COCCn1cc(Nc2nc3ccc(S(C)(=O)=O)cc3c3cn[nH]c23)cn1 [Example 113, N-(1-(2-methoxyethyl)-1H-pyrazol-4-yl)-8-(methylsulfonyl)-3H-pyrazolo[3,4-c]quinolin-4-amine]"
14,100 to 1000 nM,"COc1ccc2nc(Nc3cnn(C)n3)c3n[nH]cc3c2c1 [Example 122, 8-methoxy-N-(2-methyl-2H-1,2,3-triazol-4-yl)-2H-pyrazolo[3,4-c]quinolin-4-amine]"
15,< 10 nM,"COc1cccc2nc(Nc3cnn(C4CCOCC4)c3)c3[nH]ncc3c12 [Example 142, 9-methoxy-N-(1-(tetrahydro-2H-pyran-4-yl)-1H-pyrazol-4-yl)-3H-pyrazolo[3,4-c]quinolin-4-amine]"
16,< 10 nM,"CN1CCC(n2cc(Nc3nc4ccc(S(C)(=O)=O)cc4c4cn[nH]c34)cn2)CC1 [Example 154, N-(1-(1-methylpiperidin-4-yl)-1H-pyrazol-4-yl)-8-(methylsulfonyl)-3H-pyrazolo[3,4-c]quinolin-4-amine]"
17,< 10 nM,"CC(=O)N1CCC(n2cc(Nc3nc4ccc(S(C)(=O)=O)cc4c4cn[nH]c34)cn2)CC1 [Example 155, 1-(4-(4-((8-(methylsulfonyl)-3H-pyrazolo[3,4-c]quinolin-4-yl)amino)-1H-pyrazol-1-yl)piperidin-1-yl)ethan-1-one]"
